Molecules are shown by their SMILES. Where two headings read alike, the source gives them in different places.

This note sets out measurements from patent US8501752B2, “Methods for treating cancer and other pathological proliferating disorders by inhibiting mitosis using pyrrolo[2,3-d]pyrimidines” (Duquesne University of the Holy Ghost, priority 2005, dated 2013).

One data set deals with RPM1-8226. As to the kind of experiment: NCI IVCLSP growth inhibition (SRB), RPM1-8226. The data set is classed as cell-based, human. To be noted: 48 h drug incubation. Here is the method:
(§1) FIG. 1 presents nine compounds that were tested using the National Cancer Institute (NCI) 60 human tumor cell lines. The cells lines, which represent leukemia, melanoma, and cancers of the lung, colon, brain, ovary, breast, prostate, and kidney, are listed in Table 1.
(§2) Compounds 1-9 were tested according to the NCI Developmental Therapeutics Program (DTP) In Vitro Cell Line Screening Project (IVCLSP). […] Methodology for testing under the IVCLSP is as follows: The human tumor cell lines of the cancer screening panel are grown in RPMI 1640 medium containing 5% fetal bovine serum and 2 mM L-glutamine. […]
(§3) Following drug addition, the plates are incubated for an additional 48 h at 37° C., 5% CO2, 95% air, and 100% relative humidity. […] Bound stain is subsequently solubilized with 10 mM trizma base, and the absorbance is read on an automated plate reader at a wavelength of 515 nm. […] Using the seven absorbance measurements [time zero, (Tz), control growth, (C), and test growth in the presence of drug at the five concentration levels (Ti)], the percentage growth is calculated at each of the drug concentrations levels. Percentage growth inhibition is calculated as: [(Ti−Tz)/(C−Tz)]×100 for concentrations for which Ti>/=Tz [(Ti−Tz)/Tz]×100 for concentrations for which Ti<Tz.
(§4) Three dose response parameters are calculated for each experimental agent. […]

For another data set, the system named is MCF-7 cells. As to the kind of experiment: Cytotoxicity, drug-sensitive MCF-7 cells. To be noted: mean ± SEM for 3 experiments.
Another data set concerns COLO 205. As to the kind of experiment: NCI IVCLSP growth inhibition (SRB), COLO 205. It counts as cell-based, human. As to conditions: 48 h drug incubation. Here is the method: as §1, §2, §3, §4
The subject of another data set is SN12C. Put plainly: NCI IVCLSP growth inhibition (SRB), SN12C. The data set is classed as cell-based, human. To be noted: 48 h drug incubation. The protocol: as §1, §2, §3, §4
The subject of another data set is LOX IMVI. Put plainly: NCI IVCLSP growth inhibition (SRB), LOX IMVI. The data set is classed as cell-based, human. To be noted: 48 h drug incubation. Here is the method:
as §1, §2, §3, §4

The next data set relates to HCC-2998. Put plainly: NCI IVCLSP growth inhibition (SRB), HCC-2998. It counts as cell-based, human. As to conditions: 48 h drug incubation. The protocol:
as §1, §2, §3, §4

The subject of another data set is SR. As to the kind of experiment: NCI IVCLSP growth inhibition (SRB), SR. It counts as cell-based, human. As to conditions: 48 h drug incubation. The protocol: as §1, §2, §3, §4
In the next data set the test system is MDA-N. Put plainly: NCI IVCLSP growth inhibition (SRB), MDA-N. It counts as cell-based, human. As to conditions: 48 h drug incubation. The protocol:
as §1, §2, §3, §4

A further data set deals with CCRF-CEM. As to the kind of experiment: NCI IVCLSP growth inhibition (SRB), CCRF-CEM. It counts as cell-based, human. To be noted: 48 h drug incubation. The protocol:
as §1, §2, §3, §4

The test system of another data set is SF-268. As to the kind of experiment: NCI IVCLSP growth inhibition (SRB), SF-268. It counts as cell-based, human. As to conditions: 48 h drug incubation. Here is the method:
as §1, §2, §3, §4

Another data set relates to HS 578T. As to the kind of experiment: NCI IVCLSP growth inhibition (SRB), HS 578T. The data set is classed as cell-based, human. To be noted: 48 h drug incubation. Here is the method: as §1, §2, §3, §4
In a further data set the test system is MDA-MB-435. As to the kind of experiment: NCI IVCLSP growth inhibition (SRB), MDA-MB-435. The data set is classed as cell-based, human. As to conditions: 48 h drug incubation. The protocol: as §1, §2, §3, §4
The subject of a further data set is OVCAR-3. As to the kind of experiment: NCI IVCLSP growth inhibition (SRB), OVCAR-3. As to conditions: 48 h drug incubation. The data set is classed as cell-based, human. The protocol: as §1, §2, §3, §4
Another data set concerns T-47D. As to the kind of experiment: NCI IVCLSP growth inhibition (SRB), T-47D. It counts as cell-based, human. As to conditions: 48 h drug incubation. The protocol: as §1, §2, §3, §4
Another data set deals with NCI/ADR cells. As to the kind of experiment: Cytotoxicity, NCI/ADR cells that overexpress P-glycoprotein. To be noted: for IC50: mean ± SEM for 3 experiments.
In the next data set the test system is A498. Put plainly: NCI IVCLSP growth inhibition (SRB), A498. It counts as cell-based, human. As to conditions: A498; 48 h drug incubation, SRB. Here is the method: as §1, §2, §3, §4
Another data set has as its system p53. Put plainly: Western blot, p53 expression in MCF-7 cells. It counts as cell-based, human. As to conditions: 24 hours, various concentrations. Here is the method:
(§5) To further characterize the cell cycle effects of Compound 1 on human tumor cells, MCF-7 cells were treated for 24 hours with various concentrations of Compound 1, vinblastine, or TAXOL (paclitaxel). Cells were then harvested, lysed, and analyzed for levels of expression of p53 and WAF1 by Western Blot analyses. […] Compound 1 is identified as “149” in these figures. […] None of these treatments affected the expression of bcl-2 or P-tubulin in the MCF-7 cells.
Background: In western blotting, separated proteins are transferred to a membrane and probed.

Another data set has as its system PC-3. Put plainly: NCI IVCLSP growth inhibition (SRB), PC-3. It counts as cell-based, human. As to conditions: 48 h drug incubation. The protocol:
as §1, §2, §3, §4

Another data set deals with SF-295. As to the kind of experiment: NCI IVCLSP growth inhibition (SRB), SF-295. To be noted: 48 h drug incubation. It counts as cell-based, human. Here is the method: as §1, §2, §3, §4
In the next data set the test system is NCI/ADR-RES. Put plainly: NCI IVCLSP growth inhibition (SRB), NCI/ADR-RES. The data set is classed as cell-based, human. As to conditions: 48 h drug incubation. The protocol:
as §1, §2, §3, §4

A further data set concerns WAF1. As to the kind of experiment: Western blot, WAF1 expression in MCF-7 cells. The data set is classed as cell-based, human. As to conditions: 24 hours, various concentrations. The protocol: as §5

Text for NCI/ADR cells: These cell lines are resistant to anticancer drugs due to overexpression of the transport proteins P-glycoprotein or MRP1.

A word on the GI50: it is the concentration giving 50% growth inhibition. A low value points to greater sensitivity of the cells. `COc1cc(CCc2cn(Cc3ccccc3)c3nc(N)nc(C)c23)cc(OC)c1OC` [Compound 1]: the GI50 was found to be 439 nM in the data set on RPM1-8226; 190 nM with COLO 205; 537 nM in the data set with SN12C; 250 nM in the data set with LOX IMVI; 317 nM with HCC-2998; 31.4 nM in the data set with SR. Also, the GI50 is under 10 nM with MDA-N; 58 nM with CCRF-CEM; 669 nM in the data set with SF-268; 283 nM in the data set with HS 578T; 10.1 nM in the data set with MDA-MB-435; 28.8 nM in the data set on OVCAR-3. Also, the GI50 stood at 563 nM in the data set on T-47D; 136 nM in the data set on A498; 47.9 nM in the data set with PC-3; 41.8 nM in the data set with SF-295; 145 nM in the data set on NCI/ADR-RES. The IC50 in the data set with MCF-7 cells (read-out: Cytotoxicity IC50, MCF-7) is 300 ± 160 nM; in the data set on MCF-7 cells (read-out: drug sensitivity (IC50), MCF-7, Table 4) it was 280 ± 10 nM; in the data set with NCI/ADR cells (read-out: Cytotoxicity IC50, NCI/ADR), 250 ± 120 nM; in the data set with NCI/ADR cells (read-out: drug sensitivity (IC50), NCI/ADR, Table 4, P-glycoprotein overexpressing) it was 350 ± 40 nM. In the data set on NCI/ADR cells (P-glycoprotein), the “Resistance (NCI/ADR relative to MCF-7)” value came to 1.3. Besides, the “level of expression of p53 (in words)” value in the data set with p53 is “induced the expression”. Besides, the “level of expression of WAF1 (in words)” value in the data set on WAF1 is “induced the expression”.
